Consider five compounds from paper PMC12444563 (ACS Omega, 2025).

The nature of data set [1]: rat liver S9 fraction (male, pooled, Xeno-tech). To be noted: 37 °C, up to 90 minutes.
Data set [2] is described as follows: rat plasma (Strain: Sprague Dawley; Innovative Research). To be noted: 37 °C, up to 4 hours.
The nature of data set [3]: human liver S9 fraction (male, pooled, Xeno-tech). The conditions noted are these: 37 °C, up to 90 minutes.
In data set [4] the test system is bovine spleen Cathepsin B (SigmaAldrich C6286, ≥10 units/mg protein). The experiment in a line: activated Cathepsin B (1.12 u/mL) in 20 mM NaOAc, 1 mM EDTA, pH 5.4, with L-cysteine. To be noted: 37 °C, up to 24 h.
Data set [5] is described as follows: human plasma (Pooled; Innovative Research). The conditions noted are these: 37 °C, up to 4 hours.
Data set [6] deals with Cathepsin B (SigmaAldrich C6286). The data set can be described thus: bovine spleen Cathepsin B in 20 mM NaOAc, 1 mM EDTA, pH 5.4, activated with L-cysteine. To be noted: 37 °C, up to 24 h.
For the next data set, the system named is U87MG cancer cell lines. More on the design: method as in PMID 37492088. To be noted: short-contact time antiproliferative assay; earlier work of the authors; read-out: IC50 against U87MG cancer cell lines; cited from earlier work.

Entries after “also recorded” stand apart in the source; their conditions may differ. Starred links: 1 amine or outer side, 2 acyl side, 3 side chain; linkers in the order of their positions; H or OH if unused. Non-standard residues stand in square brackets, D forms with d. Residues, ends and D or L forms follow the SMILES beside them. *: point of attachment. Paclitaxel(2'-OCO-DMEDA) = CC(=O)O[C@H]1C(=O)[C@@]2(C)[C@H]([C@H](OC(=O)c3ccccc3)[C@]3(O)C[C@H](OC(=O)[C@H](OC(=O)N(C)CCN(C)*)[C@@H](NC(=O)c4ccccc4)c4ccccc4)C(C)=C1C3(C)C)[C@]1(OC(C)=O)CO[C@@H]1C[C@@H]2O; Dolaproine = CO[C@@H]([C@@H]1CCCN1)[C@@H](C)C(=O)O; Dil = CC[C@H](C)[C@H](NC)[C@@H](CC(=O)O)OC; Fmoc = O=C(OCC1c2ccccc2-c2ccccc21)*; PABC = O=C(OCc1ccc(N[*:1])cc1)[*:2]; X1 = C[C@@H](N*)[C@@H](O)c1ccccc1; NMeV = CN[C@H](C(=O)O)C(C)C

Fmoc-GPLG-PABC-diamine-PTX: the not cleaved result in data set [1] is “more than 94% intact after 1.5 h (Table S7: 94.464% at 90 min)”; in data set [2], 100% of residual compound after 4 h (Table S7: 103.0% at 240 min); in data set [3], “more than 94% intact after 1.5 h (Table S7: 94.986% at 90 min)”; in data set [4], “no cleavage between Gly and Pro residues was observed throughout the experiment time”; in data set [5], 100% of residual compound after 4 h (Table S7: 112.1% at 240 min). Moreover, the cleaved bond result in data set [4] is recorded as “Gly-PABC, first_seen, 2 min”. In addition, the fragment found result in data set [4] is recorded as “diamine-PTX (fragment II), 2 min; also recorded: free PTX, 24 h”.
For the compound Fmoc-VCit-PABC-diamine-PTX, in data set [2], the not cleaved is given as 118.1% remaining at 240 min. Also, the values for the fragment found result in data set [6] and in data set [4] were “PABC-diamine-PTX (fragment I)” and “PABC-diamine-PTX (fragment I); also recorded: diamine-PTX (fragment II)”, respectively.
Consider Fmoc-VA-PABC-diamine-PTX, for which the not cleaved is listed as 108.0% remaining at 240 min in data set [2] and 107.1% remaining at 240 min in data set [5]. Further, the fragment found entry in data set [6] is recorded as “PABC-diamine-PTX (fragment I)”; in data set [4] it was “PABC-diamine-PTX (fragment I); also recorded: diamine-PTX (fragment II)”.
“Fmoc-GFLG-PABC-diamine-PTX (Fmoc-GFLG[PABC]-{Paclitaxel(2'-OCO-DMEDA)}; SMILES CC(=O)O[C@H]1C(=O)[C@@]2(C)[C@H]([C@H](OC(=O)c3ccccc3)[C@]3(O)C[C@H](OC(=O)[C@H](OC(=O)N(C)CCN(C)C(=O)OCc4ccc(NC(=O)CNC(=O)[C@H](CC(C)C)NC(=O)[C@H](Cc5ccccc5)NC(=O)CNC(=O)OCC5c6ccccc6-c6ccccc65)cc4)[C@@H](NC(=O)c4ccccc4)c4ccccc4)C(C)=C1C3(C)C)[C@]1(OC(C)=O)CO[C@@H]1C[C@@H]2O)”: the not cleaved in data set [2] worked out at 103.3% remaining at 240 min; in data set [3], 95.232% remaining at 90 min; in data set [5], 93.9% remaining at 240 min. Also, in data set [4], the cleaved bond result is listed as “Gly-Phe, 2 min; also recorded: Gly-PABC”. Moreover, the fragment found entry in data set [4] is “diamine-PTX (fragment II)”.
Take `CC[C@H](C)[C@@H]([C@@H](CC(=O)N1CCC[C@H]1[C@H](OC)[C@@H](C)C(=O)N[C@H](C)[C@@H](O)c1ccccc1)OC)N(C)C(=O)[C@@H](NC(=O)[C@@H](NC)C(C)C)C(C)C` [MMAE, monomethyl auristatin E] (H-[NMeV]V[Dil][Dolaproine]-X1): the IC50 in the data set on U87MG cancer cell lines was 2130 nM.

The IC50 is the concentration that gives 50% inhibition.
